For orientation: pIC50 means −log10 of the IC50, conventionally taken in molar units.

pIC50: −log10 of the molar value.

The first assay has as its system HepG2. In words: Cell viability (CellTiter-Blue, 72 h), HepG2 liver cancer cells. As to conditions: Homo sapiens, HepG2, 72 h, read-out: IC50 values. Format: cell-based. As for the experimental part: The cell lines tested in this Example were as follows. Breast cancer: MDA-MB-231; SK-BR3; and BT474. Liver cancer: HepG2.
(§1) The phytocannabinoids were tested alone and in various ratioed combinations in media containing final concentrations of 10% and 1% foetal bovine serum at 72 h for the breast and prostate cancer lines and 1% foetal bovine serum for the liver cancer line HepG2.
Each tumour cell line was maintained in vitro in RPMI 1640+10% heat inactivated FBS and 2 mM L-glutamine (growth media) at 37° C. in 5% CO2 and humidified conditions. The cells were harvested, washed, re-suspended into growth medium and counted. The cells were re-suspended into assay media (RPMI 1640+5% heat inactivated FBS+ and 2 mM L-glutamine) at 8×104-2×10^5 cells/ml (dependent upon cell type) and plated into the middle 240 wells of 384 well tissue culture plates (Corning CellBind, black-wall plates) 12.5 μl/well aliquots; 62.5 μl of growth media was aliquoted into the outer wells. There were 4 plates for each cell line. The plates were incubated overnight at 37° C., in 5% humidified CO2.
The phytocannabinoid test compounds were prepared in 100% DMSO vehicle at a stock concentration of 10 mM.
Starting with the 10 mM stock, the compounds were diluted to 125 μM in FBS-free growth media.
These were diluted in FBS-free growth media to 125 μM before serial dilution.
5 volumes of CBD 10 mM stock was added to 1 volume of the other agent (also at 10 mM) and 4 volumes of DMSO. This made a final concentration of 5 mM:1 mM. This was then diluted in FBS-free growth media so the top concentration of CBD would be 125 μM (before serial dilution). Each compound and compound combination stock was serially diluted in FBS-free growth media (containing 1.25% v/v DMSO) from 125 μM to 41.7, 13.89, 4.63, 1.54, 0.514, 0.171, 0.057 and 0.019 μM (1.25× final assay concentrations). Vehicle was prepared at equivalent dilutions in assay media. The top final concentration of compound in the assay was always 100 μM so CBD5:1CBG was 100 μM CBD and 20 μM CBG.
The plates were incubated for 72 h at 37° C. in 5% humidified CO2. To develop the plates, at 72 h, 10 μl of CellTiter-Blue™ reagent was added to each test/blank well. The plates were incubated at 37° C., 5% humidified CO2. Fluorescence was measured using a Flex II Station plate reader (570 nm excitation wavelength, 600 nm emission wavelength, 590 nm cut-off) after 3 h.
The raw data values expressed in relative fluorescent units were normalised to the vehicle for each individual plate and any reduction in fluorescence indicated a decrease in viability.
The data were analysed in GraphPad PRISM using a non-linear sigmoidal plot with variable slope (asymmetric five point linear regression) and where possible an IC50 value for each single compound and combination was generated.
Consider `CCCCCc1cc(O)c(C/C=C(\C)CCC=C(C)C)c(O)c1` [CBG, Cannabigerol], for which the pIC50 was 5.43.

In the case of `C=C(C)[C@@H]1CCC(C)=C[C@H]1c1c(O)cc(CCCCC)c(C(=O)O)c1O` [CBDA, Cannabidiolic acid], the pIC50 was 5.13.

Regarding `C=C(C)[C@@H]1CCC(C)=C[C@H]1c1c(O)cc(CCCCC)cc1O` [CBD, Cannabidiol], the pIC50 was 5.48.

Take `CCCCCc1cc(O)c(C/C=C(\C)CCC=C(C)C)c(O)c1C(=O)O` [CBGA, Cannabigerolic acid]: the pIC50 is 5.03.

For the molecule `CCCc1cc(O)c2c(c1)OC(C)(C)[C@@H]1CCC(C)=C[C@@H]21` [THCV, Tetrahydrocannabivarin], the pIC50 is 5.14.

In the next assay the test system is LNCAP cells compared to DU145 cells. In words: Cell viability, prostate cancer lines LNCAP and DU145 (potency comparison). Format: cell-based. As to conditions: media containing 10% FBS. The method, then: as §1
`CCCc1cc(O)c2c(c1)OC(C)(C)[C@@H]1CCC(C)=C[C@@H]21` [THCV, Tetrahydrocannabivarin]: the “fold more potent in LNCAP cells compared to DU145 cells” value came to 5 fold.

These data come from patent publication US9962341B2, “Active pharmaceutical ingredient (API) comprising cannabinoids for use in the treatment of cancer” (GW Pharma Limited, priority 2014, dated 2018).
